± gives the standard deviation of the averaged measurements.
What was measured:
CAMPTOTHECIN [1] = compound: T1, CC[C@@]1(O)C(=O)OCc2c1cc1n(c2=O)Cc2cc3ccccc3nc2-1 [CAMPTOTHECIN]; experiment: surviving fraction relative to DMSO-only wells; higher = less growth inhibition; details: exposure time: 5 days
How it was run: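 At 250–500 cells per well in 384-well plates, log-phase tumour cell lines were seeded and, 24 hours on, exposed continuously for five days to inhibitors at 0.5, 1, 5, 10, 50, 100, 500 and 1000 nM. Viability readout was CellTiter-Glo luminescence, reported as surviving fraction normalised to the median of DMSO-only wells.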

PACLITAXEL = compound: CC(=O)O[C@H]1C(=O)[C@@]2(C)[C@H]([C@H](OC(=O)c3ccccc3)[C@]3(O)C[C@H](OC(=O)[C@H](O)[C@@H](NC(=O)c4ccccc4)c4ccccc4)C(C)=C1C3(C)C)[C@]1(OC(C)=O)CO[C@@H]1C[C@@H]2O [PACLITAXEL]; experiment: area under dose-response curve of surviving fraction (unscaled, Aref=0) (surviving fraction x log10(nM)); higher = more resistant; details: exposure time: 5 days; dose range 0.5-1000 nM
How it was run: (§1)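 Inhibitor was applied to tumour cell lines at eight concentrations (0.5 to 1000 nM) for five days in 384-well plates. Luminescence from CellTiter-Glo, scaled to DMSO-only wells, gave surviving fractions in three screens per line, and these were fitted by 3-parameter logistic regression with the drc R package. The area under the curve is an unscaled activity area. Aref was 0, and dose was on a log10 scale.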

[2] = compound: CC(=O)c1c(C)c2cnc(Nc3ccc(N4CCNCC4)cn3)nc2n(C2CCCC2)c1=O; experiment: as above; details: exposure time: 5 days; dose range 0.5-1000 nM
How it was run: as §1

[3] = compound: CC(=O)NCC(=O)N1[C@@H]2CC[C@H]1c1ccc(Nc3ncc(C(F)(F)F)c(NC4CCC4)n3)cc12; experiment: as above; details: exposure time: 5 days; dose range 0.5-1000 nM
How it was run: as §1

CARBOPLATIN = compound: O=C(O)C1(C(=O)O)CCC1.[NH2-].[NH2-].[Pt+2] [CARBOPLATIN]; experiment: as above; details: exposure time: 5 days; dose range 0.5-1000 nM
How it was run: as §1

YM155 = compound: COCC[n+]1c2c(n(Cc3cnccn3)c1C)C(=O)c1ccccc1C2=O [YM155]; experiment: as above; details: exposure time: 5 days; dose range 0.5-1000 nM
How it was run: as §1

OSI-906 = compound: C[C@]1(O)C[C@@H](c2nc(-c3ccc4ccc(-c5ccccc5)nc4c3)c3c(N)nccn32)C1 [OSI-906]; experiment: as above; details: exposure time: 5 days; dose range 0.5-1000 nM
How it was run: as §1

CELECOXIB = compound: Cc1ccc(-c2cc(C(F)(F)F)nn2-c2ccc(S(N)(=O)=O)cc2)cc1 [CELECOXIB]; experiment: as above; details: exposure time: 5 days; dose range 0.5-1000 nM
How it was run: as §1

GEFITINIB = compound: COc1cc2ncnc(Nc3ccc(F)c(Cl)c3)c2cc1OCCCN1CCOCC1 [GEFITINIB]; experiment: as above; details: exposure time: 5 days; dose range 0.5-1000 nM
How it was run: as §1

CAMPTOTHECIN [4] = compound: T1, CAMPTOTHECIN; experiment: as above; details: exposure time: 5 days; dose range 0.5-1000 nM
How it was run: as §1

Test System	surviving fraction (CAMPTOTHECIN [1]; 0.5 nM)	surviving fraction (CAMPTOTHECIN [1]; 1 nM)	surviving fraction (CAMPTOTHECIN [1]; 5 nM)	surviving fraction (CAMPTOTHECIN [1]; 10 nM)	surviving fraction (CAMPTOTHECIN [1]; 50 nM)	surviving fraction (CAMPTOTHECIN [1]; 100 nM)	surviving fraction (CAMPTOTHECIN [1]; 500 nM)	surviving fraction (CAMPTOTHECIN [1]; 1000 nM)	area under dose-response curve (PACLITAXEL)	area under dose-response curve [2]	area under dose-response curve [3]	area under dose-response curve (CARBOPLATIN)	area under dose-response curve (YM155)	area under dose-response curve (OSI-906)	area under dose-response curve (CELECOXIB)	area under dose-response curve (GEFITINIB)	area under dose-response curve (CAMPTOTHECIN [4])
143B BONE	0.911 ± 0.076	0.9815 ± 0.00071	0.947 ± 0.025	0.83 ± 0.07	0.12 ± 0.005	0.0595 ± 0.0064	0.021	0.0245 ± 0.00071	1.1	3.53	2.93	–	–	–	–	–	–
ASKA SYNOVIAL	0.303 ± 0.029	0.641 ± 0.065	0.349 ± 0.032	0.242 ± 0.025	0.118 ± 0.005	0.21 ± 0.0046	0.157 ± 0.0082	0.231 ± 0.0075	0.983	–	2.15	3.72	1.57	3.41	3.87	3.71	0.904
BT20 BREAST	0.764 ± 0.067	0.744 ± 0.088	0.492 ± 0.089	0.197 ± 0.015	0.096 ± 0.0052	0.0537 ± 0.0075	0.0213 ± 0.0015	0.0257 ± 0.0025	0.614	–	2.05	–	0.651	2.91	3.78	3.62	0.907
BT549 BREAST	0.743 ± 0.096	0.672 ± 0.094	0.377 ± 0.018	0.103 ± 0.014	0.032 ± 0.004	0.0227 ± 0.00058	0.02	0.023 ± 0.002	0.396	–	2.58	3.61	1.74	3.07	3.78	3.57	0.714
CADOES1 SOFT TISSUE	0.886 ± 0.088	0.818 ± 0.1	0.0943 ± 0.0059	0.0577 ± 0.014	0.045 ± 0.0044	0.0337 ± 0.0064	0.0317 ± 0.0021	0.0297 ± 0.0015	1.87	2.79	2.12	–	3.1	3.12	2.95	3.02	0.642
CCK81 LARGE INTESTINE	0.789 ± 0.034	0.805 ± 0.085	0.693 ± 0.16	0.542 ± 0.097	0.506 ± 0.051	0.416 ± 0.046	0.056 ± 0.007	0.0267 ± 0.0049	–	–	–	2.67	2.51	2.3	2.59	1.85	1.63
CHLA90 AUTONOMIC GANGLIA	0.318 ± 0.011	0.835 ± 0.041	0.584 ± 0.031	0.481 ± 0.05	0.173 ± 0.0053	0.268 ± 0.0099	0.133 ± 0.033	0.137 ± 0.027	1.13	3.14	2.51	–	1.31	2.73	3.34	2.9	1.21
CME SYNOVIAL	0.013 ± 0.0036	0.14 ± 0.019	0.0177 ± 0.00058	0.0897 ± 0.018	0.028 ± 0.0027	0.152 ± 0.017	0.1177 ± 0.00058	0.229 ± 0.0051	1.47	4.13	2.49	4.52	1.3	–	4.61	–	0.288
HCC70 BREAST	0.905 ± 0.12	1.04 ± 0.029	0.958 ± 0.092	0.63 ± 0.044	0.443 ± 0.045	0.385 ± 0.015	0.119 ± 0.061	0.0573 ± 0.0076	0.799	3.53	2.46	3.56	2.27	3.29	3.62	–	1.9
HCC78 LUNG	0.33 ± 0.059	0.597 ± 0.15	0.0267 ± 0.0057	0.0123 ± 0.0031	0.0137 ± 0.0031	0.0147 ± 0.0023	0.013 ± 0.0027	0.016 ± 0.0027	0.585	–	2.33	3.35	0.851	2.75	3.06	–	0.338
HCC202 BREAST	1.05 ± 0.027	0.866 ± 0.17	0.734 ± 0.082	0.691 ± 0.24	0.78 ± 0.14	0.767 ± 0.1	0.478 ± 0.0071	0.357 ± 0.0042	1.37	3.11	4.5	–	–	–	–	–	–
HCC1395 BREAST	0.71 ± 0.18	0.909 ± 0.071	0.788 ± 0.064	0.732 ± 0.044	0.627 ± 0.029	0.57 ± 0.086	0.421 ± 0.049	0.344 ± 0.09	1.76	3.96	3.19	3.87	2.28	–	4.09	3.91	2.09
HMLE3 BREAST	0.304 ± 0.027	0.85433 ± 0.00058	0.485 ± 0.027	0.3 ± 0.0056	0.127 ± 0.026	0.0547 ± 0.0029	0.0203 ± 0.0015	0.0213 ± 0.00058	0.754	3.23	2.59	–	1.02	2.79	3.53	–	0.888
HMT3552 BREAST	0.955 ± 0.056	0.944 ± 0.087	0.782 ± 0.031	0.422 ± 0.0095	0.224 ± 0.0076	0.215 ± 0.0061	0.0953 ± 0.005	0.0647 ± 0.0081	–	–	–	–	1.94	3.17	3.77	3.14	1.48
HS57T BREAST	0.826 ± 0.044	0.849 ± 0.041	0.79 ± 0.011	0.505 ± 0.031	0.192 ± 0.007	0.149 ± 0.0066	0.0707 ± 0.0025	0.0653 ± 0.0081	–	–	–	–	–	–	–	–	–
HS578T BREAST	0.811 ± 0.14	0.778 ± 0.18	0.729 ± 0.11	0.648 ± 0.091	0.464 ± 0.05	0.457 ± 0.054	0.228 ± 0.0098	0.212 ± 0.039	0.471	3.49	2.72	–	2.61	3.11	3.16	3.1	1.81
JURKAT HAEMATOPOIETIC AND LYMPHOID TISSUE	0.928 ± 0.043	0.902 ± 0.025	0.282 ± 0.011	0.0237 ± 0.0015	0.0293 ± 0.00058	0.0247 ± 0.00058	0.0203 ± 0.00058	0.0253 ± 0.0011	0.401	–	2.31	3.39	1.3	3.25	3.37	3.46	0.802
MDAMB453 BREAST	0.966 ± 0.069	0.966 ± 0.017	1.01 ± 0.048	0.942 ± 0.058	0.43 ± 0.03	0.453 ± 0.015	0.109 ± 0.016	0.091 ± 0.0027	1.23	3.52	2.73	3.54	1.04	–	3.64	–	2.11
